By melting point is commonly meant the temperature of the solid-liquid transition.

A value given as a limit tells only on which side of the number the result lay.

For `O=C1CC(c2ccc(Cl)cc2)CC(=O)N1c1ccncc1`, the melting point is 204 to 206 °C.

Molecule `O=C(c1ccccc1F)c1cc(Cl)ccc1C=CCN1C(=O)c2ccccc2C1=O` displayed a melting point of 117 °C.

The molecule `c1ccc(-c2nc(COc3ccc(CCCCn4ccnc4)cc3)cs2)cc1` displayed a melting point of 93 to 94 °C.

Molecule `Cc1cc2c(s1)Oc1ccccc1N=C2N1CCN(C)CC1` registered a melting point of 132 to 133 °C.

Turning to `CC1(CNc2ccccc2)SC2C(NC(=O)Cc3ccccc3)C(=O)N2C1C(=O)O` (stereo not drawn), the melting point worked out at 120 °C.

Regarding `CN1CCC(c2nn(CCCO)c3ccccc23)CC1`, the melting point fell in the range of 96 to 98 °C.

Molecule `CCCCCCCCCCCCCCCCCCOc1cc(N(CC(=O)O)CC(=O)O)cc(S(C)=O)c1` (stereo not drawn) came in with a melting point of 147 to 149 °C.

`CC(C)(C)OC(=O)NC1CCc2cc3ccccc3n2C1` (stereo not drawn) returned a melting point of 137 to 139 °C.

For `c1ccc(Sc2cc(Sc3ccccc3)c3ccc4c(Sc5ccccc5)cc(Sc5ccccc5)c5ccc2c3c54)cc1`, the melting point is 230 °C.

Molecule `CC(C)(C)OC(=O)Nc1cc(=O)c2cc(Oc3ccccc3)c(NS(C)(=O)=O)cc2o1` came in with a melting point of 147 to 150 °C.

In turn, `CCCS(=O)c1cccc(-c2nc(=O)c3ccccc3s2)n1` (stereo not drawn) gave a melting point of 175 °C.

`CCCC(=O)c1ccc(C(CCC)CC(=O)Nc2cc(C(N)=O)ccc2C(C)(C)C)c(OC)c1` (stereo not drawn) displayed a melting point of 193 to 194 °C.

Molecule `Cc1ccc(-c2[nH]c3c(Br)cc(Br)cc3c(=O)c2Cc2ccncc2)cc1` displayed a melting point of 206 to 208 °C.

As to `N#CC1(Nc2ccccc2)CCN([C@H]2CCc3ccccc32)CC1`, the melting point was 157 to 160 °C.

With `CCOC(=O)C(=C1SCSCS1)c1ccc(Oc2ccccc2)cc1`, the melting point lay in the range of 134 to 135 °C.

With `Cn1c(=O)[nH]c(=O)c2c1ncn2Cc1noc(C2CCCCC2)n1`, the melting point lay in the range of 245 to 248 °C.

For the molecule `O=CCC1Cc2ccc(Cl)cc2C1=O` (racemic), the melting point was found to be 80 °C.

The molecule `CCOC(=O)c1ncn2c1c(=O)[nH]c1cc(S(C)(=O)=O)ccc12` yielded a melting point of over 300 °C.

`C/C=C(\Br)C(=O)Nc1cccc(F)c1` displayed a melting point of 44 to 45.5 °C.

For `CCc1ncnc2ccc(C#Cc3cc(OC)ccc3OC)cc12`, the melting point lay within 103 to 105 °C.

Turning to `Cc1cc(C)cc(S(=O)(=O)c2c(C(=O)O)[nH]c3ccc(Cl)cc23)c1`, the melting point is 277 to 278 °C.

`Cn1cnc(COc2n[nH]c(C=O)c2-c2ccccc2)n1`: the melting point lay in the range of 202 to 205 °C.

`Cc1ccc2cccc(OCc3cc(N)ccc3Cl)c2n1` yielded a melting point of 176 to 178 °C.

Consider `COc1cc(C(C)C)ccc1C1(O)C(=O)c2cccc(N)c2C1=O` (stereo not drawn), for which the melting point lay in the range of 219 to 220 °C.

Regarding `O=C(Nc1ccc(C(=O)N2Cc3cccn3Cc3ccccc32)cc1)c1ccccc1Cl`, the melting point fell in the range of 228 to 230 °C.

The molecule `O=C(/C=C/C=C/c1ccccc1)NCCSCCC(=O)NO` gave a melting point of 158 to 160 °C.

As for `N#CCc1cc(=O)c(OCc2ccccc2)cn1Cc1ccccc1`, the melting point fell in the range of 175 to 180 °C.

On to `Cc1ccc(S(=O)(=O)c2nc(Cl)c([N+](=O)[O-])s2)cc1`, for which the melting point lay within 153 to 154 °C.

With `Cc1ccc(S(=O)(=O)NCC(=O)NCc2ccc(C(c3cc(F)ccc3F)S(=O)(=O)c3ccc(Cl)cc3)nc2)cc1` (stereo not drawn), the melting point lay in the range of 217 to 218 °C.

The molecule `CCCc1c(OCCCSc2ccc(C(=O)OC)cn2)ccc(C(C)=O)c1O` yielded a melting point of 66 to 68 °C.

Turning to `CC(C)COc1c(-c2ccc(S(C)(=O)=O)cc2)cnn(-c2ccc(F)c(F)c2)c1=O`, the melting point is 116 to 117 °C.

`O=C(O)c1ccc(-c2ccc(Cl)cc2)nc1` registered a melting point of over 260 °C.

Molecule `COc1ccc2cccc(C=O)c2c1` returned a melting point of 61 to 63 °C.

Molecule `COc1ccccc1N1CCN(CCCn2c(=O)[nH]c3c(c2=O)CCCC3)CC1` registered a melting point of 212 to 214 °C.

For `O=C(O)Cc1ccc2c(c1)C(=O)CC2`, the melting point fell in the range of 133 to 135 °C.

Consider `CCNC(=O)C(c1ccccc1)c1ccccc1`, for which the melting point is 87 °C.

As to `COc1ccccc1CN1CCC(=O)C(C(c2ccccc2)c2ccc(F)cc2)C1` (stereo not drawn), the melting point was in the range of 115 to 116 °C.

In turn, `Nc1nc(O)nc2nc(-c3ccco3)nn12` registered a melting point of over 300 °C.

In turn, `COC(=O)COc1ccc2cc(CNC(=O)c3cc(-c4ccc(Cl)cc4)oc3C)ccc2c1` displayed a melting point of 168 to 169 °C.

Molecule `CCn1cc(C(=O)C(=O)O)c2ccc(-c3ccc(C(F)(F)F)cc3)cc21` returned a melting point of 247 to 248 °C.

`O=C(CCc1cccc(C(F)(F)F)c1)NNC(=O)c1ccc2ncsc2c1` came in with a melting point of 206 to 207 °C.

`COc1ccccc1OCCNCCCc1c[nH]c2ccccc12` registered a melting point of 101 to 102 °C.

Take `C=Cc1ncn2c1[C@@H]1CCCN1C(=O)c1c(Cl)cccc1-2`: the melting point lay in the range of 213 to 215 °C.

Take `CN(c1cccc2cc(C3=NCC(C)(CCN4CCOCC4)S3)[nH]c12)S(=O)(=O)c1cccs1` (stereo not drawn): the melting point lay within 154 to 155 °C.

Regarding `COC(=O)c1ccc(C(=O)c2ccc(C(=O)OC)cc2)cc1`, the melting point was 228 to 230 °C.

Turning to `Cc1ccc(S(=O)(=O)N(Cc2cc(C(C)(C)C)c(O)c(C(C)(C)C)c2)c2cccnc2)cc1`, the melting point is 121 to 123 °C.

The molecule `COc1cccc([C@H]2O[C@H](CC(=O)Nc3c(C)c(C)c4oc(C(=O)O)cc4c3C)C(=O)N(CC(C)(C)CO)c3ccc(Cl)cc32)c1OC` came in with a melting point of 246 to 248 °C.

On to `O=C(NCC1CC1)c1c(NC(=O)c2cc(C(F)(F)F)nn2-c2ncccc2Cl)c(Cl)cc2cn[nH]c12`, for which the melting point was over 250 °C.

`COC(=O)NC(=O)c1c(Br)ccc2c(C(F)(F)F)c(OC)ccc12` gave a melting point of 180 to 182 °C.

Turning to `COc1ccc(C(O)CNCCN)cc1` (stereo not drawn), the melting point worked out at 68 °C.

`COc1ccc(C2(CNC(=S)NCC(C)C)OCCO2)cc1` had a melting point of 96 °C.

`CCC(Nc1ccncc1)c1ccccc1` (stereo not drawn) returned a melting point of 190 to 192 °C.

In the case of `COc1ccc(/C=C/c2nc3c(c(=O)n(C)c(=O)n3C)n2C)c(OC)c1OC`, the melting point is 187 to 188 °C.

`CC(C)(C)c1ccc(S(=O)(=O)N2c3ccccc3C[C@H]2C(=O)NCc2ccc(OCCC(=O)O)cc2)cc1` yielded a melting point of 75 °C.

Molecule `CCc1nc2c(NC(=O)c3ccccc3)nc3ccccc3c2n1CCCCNS(C)(=O)=O` registered a melting point of 249 to 250 °C.

In turn, `CN1C(c2ccc(NS(C)(=O)=O)cc2)NCc2ccccc2C1c1ccccc1` (stereo not drawn) had a melting point of 124 to 126 °C.

Regarding `CCOC(=O)CNC(=O)c1nnc2ccc(Cl)nn12`, the melting point is 133 to 134 °C.

Molecule `CCOC(=O)C1(C)C(=O)Nc2cc(N)ccc21` (stereo not drawn) came in with a melting point of 248 °C.

For the molecule `CCCC(=O)Oc1ccc(C(=O)Nc2ccc3cc(CN4CCCC4)cnc3c2C)cc1`, the melting point was 156 to 158 °C.

As for `CSCCC1=NS(=O)(=O)NC(N)=N1`, the melting point lay within 243 to 246 °C.

The molecule `CC(C)(C)OC(=O)NNC(=O)N1CCN(NC(=O)OCc2ccccc2)C1=O` yielded a melting point of 195 to 198 °C.

Take `O=C/C=C/c1cc2ccccc2[nH]1`: the melting point was 203 to 204 °C.

Molecule `Brc1ccc(OCc2ccc3ccccc3n2)cc1` displayed a melting point of 103 to 105 °C.

`CCc1nc2cc(CO)c(Cl)cc2n1-c1ccc(CCOC(=O)NS(=O)(=O)c2ccc(C)cc2)cc1` yielded a melting point of 173 °C.

`CC(C)CC(=O)Oc1n[nH]c(=O)c2nc3cc(Cl)ccc3c(O)c12` displayed a melting point of over 400 °C.

As to `Cc1ccc(OCC2CO2)c([N+](=O)[O-])c1[N+](=O)[O-]` (stereo not drawn), the melting point fell in the range of 121 to 123 °C.

Turning to `CC(C)C[C@H](NC(=O)N1CCCCCC1)C(=O)N[C@H](Cc1ccc(OCc2ccccc2)cc1)C(=O)OC(C)(C)C`, the melting point is 38 to 40 °C.

`Cc1noc(NC(=O)N2CCN(c3cc(-c4ccc(F)cc4F)ncn3)CC2)c1C` showed a melting point of 198 to 199 °C.

Regarding `O=C(O)c1ccc(OCc2ccccc2)c(C23CC4CC(CC(C4)C2)C3)c1`, the melting point lay in the range of 251 to 253 °C.

`O=C(O)C1c2ccccc2COc2cc(Br)ccc21` (stereo not drawn) returned a melting point of 217 to 218 °C.

As for `CCn1c(=O)c(-c2cc(OC)cc(OC)c2)cc2cnc(SC)nc21`, the melting point was in the range of 120 to 122 °C.

The molecule `O=[N+]([O-])c1cnn2c(-c3cccc(C(F)(F)F)c3)ccnc12` showed a melting point of 159 to 161 °C.

Molecule `CS(=O)(=O)C(=C1CN(C(c2ccccc2)c2ccccc2)C1)c1cc(F)ccc1F` yielded a melting point of 176 °C.

The molecule `COc1c(N)cc(-c2c3ccccc3c(Br)c3sc(C)c(C)c23)cc1Br` displayed a melting point of 198 to 200 °C.

`CCN(CCO)CCCNc1ncc2cc(-c3c(Cl)cccc3Cl)c(N)nc2n1` returned a melting point of 201 to 204 °C.

`OCC1(CO)CC(Cc2ccc(F)cc2)=NO1`: the melting point was 93 to 97 °C.

`Cc1cccnc1CCOc1ccc(NC(=O)N(C)C)cc1` displayed a melting point of 123 to 125 °C.

On to `O=C1c2ccccc2C(O)(c2ccccc2)N1CCCN1CC=C(c2ccccc2)CC1` (stereo not drawn), for which the melting point was found to be 123 °C.

Take `CC(C)COc1ccccc1-c1ccc(C(N)=O)c(=O)[nH]1`: the melting point was 180 °C.

In turn, `COC(=O)NN=C(C)c1nc(-c2ccccc2)[nH]c1C` came in with a melting point of 201 to 202 °C.

As to `CCOC(=O)N1CCN(c2c(-c3ccccc3)sc3ccccc23)CC1`, the melting point was 115 to 116 °C.

The molecule `FC(F)=C(F)Oc1ccc(C2(c3ccc(OC(F)=C(F)F)cc3)c3ccccc3-c3ccccc32)cc1` gave a melting point of 115 to 116 °C.

For `Cc1ccc2nc(-c3ccccc3F)cc(OCc3ccccc3)c2c1`, the melting point lay in the range of 91.5 to 92.8 °C.

Molecule `CCC(=C(c1ccc(O)cc1)c1ccc(O)cc1)c1cccc(-c2c(C)noc2C)c1` gave a melting point of 173 to 174 °C.

Molecule `COC(=O)Cc1c(-c2ccccc2)nn(-c2ccccc2)c1-c1ccccc1` registered a melting point of 80.5 to 81.5 °C.

`CC(C)(C)c1ccc(C(=O)Nc2cn3cc(-c4cnc[nH]4)ccc3n2)cc1`: the melting point was 297 to 298 °C.

As to `Cc1c[nH]c2c1C(=O)CC(c1cccs1)C2` (stereo not drawn), the melting point was in the range of 195 to 196 °C.

`CNC(=O)C=C1CSc2c(C(=O)OC(C)C)c(C)cn21` showed a melting point of 173 to 175 °C.

(Values after a melting point compilation (Tetko et al.; mined from patent text by program, amines drawn as free bases though some values may be those of a salt).)
